A word on the pEC50: it is the EC50 on a negative log10 scale, so that one unit is a factor of ten.

pEC50: −log10 of the molar value.

For assay [1], the species on record is Rattus norvegicus. Nature of the assay: Compound was tested for percent recovery of noradrenergic tone after washing aortic preparations with fresh Kreb's buffer. To be noted: Aorta. It is filed as functional.
The species named for assay [2] is Rattus norvegicus. Nature of the assay: Compound was tested for its vasodilator effects on endothelium-denuded strips of rat aorta precontracted with noradrenaline. Format: functional.

The compound `N#Cc1c(-c2ccccc2)no[n+]1[O-]` [FUROXAN] registered a Recovery in the assay listed under Rattus norvegicus [1] of 66%.

The compound `O=[N+]([O-])OCC(CO[N+](=O)[O-])O[N+](=O)[O-]` [NITROGLYCERIN] showed a pEC50 in the assay listed under Rattus norvegicus [2] of 7.66.

The record behind these values is ChEMBL document CHEMBL1127832, “Furoxans as nitric oxide donors. 4-Phenyl-3-furoxancarbonitrile: thiol-mediated nitric oxide release and biological evaluation” (J Med Chem, 1994).
